System: HepaRG
Test: LDH release cytotoxicity, % of total lysis control; higher = more cytotoxic
Settings: 48 h
How it was run: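 Single-lot HepaRG cells in collagen I-coated 96-well plates were treated for 48 h in serum-free induction medium containing 0.5% DMSO with test chemicals in eight-point half-log series up to 100 µM. For total lysis, wells received 0.1% Triton X. LDH in 50 µL spent medium was assayed by resorufin fluorescence with CytoTox-ONE. Percent cytotoxicity was normalized to the on-plate vehicle and total lysis controls, with duplicates averaged.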

O=C(O)[C@H](O)[C@@H](O)C(=O)O [L-Tartaric acid]
Settings | LDH release cytotoxicity [%]
0.03162 µM | -3.55
0.1 µM | -2.52
0.3162278 µM | -2.17
1 µM | -2.97
3.16228 µM | -2.2
10 µM | -0.465
31.6228 µM | 1.18
100 µM | 6.93

N[C@@H](Cc1c[nH]c2ccccc12)C(=O)O [L-Tryptophan]
Settings | LDH release cytotoxicity [%]
0.03162 µM | -1.94
0.1 µM | -2.65
0.3162278 µM | -1.1
1 µM | -1.86
3.16228 µM | -2.03
10 µM | -1.29
31.6228 µM | -1.37
100 µM | -1.29

CCOC(=O)C(C)OC(=O)c1cc(Oc2ccc(C(F)(F)F)cc2Cl)ccc1[N+](=O)[O-] (stereo not given) [Lactofen]
Settings | LDH release cytotoxicity [%]
0.03162 µM | -1.17
0.1 µM | -0.64
0.3162278 µM | -0.974
1 µM | -1.12
3.16228 µM | -0.601
10 µM | -0.515
31.6228 µM | -0.447
100 µM | 0.298

C#CC1(O)CCC2C3CCC4=CC(=O)CCC4C3CCC21CC (stereo not given) [Levonorgestrel]
Settings | LDH release cytotoxicity [%]
0.03162 µM | -1.38
0.1 µM | -1.25
0.3162278 µM | -1.67
1 µM | -1.92
3.16228 µM | -1.95
10 µM | -1.02
31.6228 µM | -0.294
100 µM | 0.81

ClC1C(Cl)C(Cl)C(Cl)C(Cl)C1Cl (stereo not given) [Lindane]
Settings | LDH release cytotoxicity [%]
0.03162 µM | -0.796
0.1 µM | -0.605
0.3162278 µM | -0.762
1 µM | -0.901
3.16228 µM | -0.128
10 µM | -0.657
31.6228 µM | 0.201
100 µM | 5.07

CON(C)C(=O)Nc1ccc(Cl)c(Cl)c1 [Linuron]
Settings | LDH release cytotoxicity [%]
0.03162 µM | -1.04
0.1 µM | -1.18
0.3162278 µM | -1.18
1 µM | -0.927
3.16228 µM | -1.44
10 µM | -0.708
31.6228 µM | 0.755
100 µM | 0.919

CCC(C)C(=O)OC1CC(C)C=C2C=CC(C)C(CCC3CC(O)CC(=O)O3)C21 (stereo not given) [Lovastatin]
Settings | LDH release cytotoxicity [%]
0.031623 µM | -0.879
0.1 µM | -2.24
0.316228 µM | -3.24
1 µM | -3.8
3.16228 µM | -3.98
10 µM | -3.52
31.6228 µM | -3.4
100 µM | 1.06

Cc1cc(Cl)ccc1OCC(=O)O [MCPA]
Settings | LDH release cytotoxicity [%]
0.03162 µM | -0.121
0.1 µM | -0.914
0.3162278 µM | -0.511
1 µM | -0.689
3.16228 µM | -0.578
10 µM | -0.154
31.6228 µM | 0.865
100 µM | 1.22

CCCCC(CC)COC(=O)c1ccccc1C(=O)O (stereo not given) [MEHP]
Settings | LDH release cytotoxicity [%]
0.0320971 µM | -1.24
0.1015 µM | -1.27
0.320971 µM | -1.13
1.015 µM | -1.47
3.2097118 µM | -1.28
10.15 µM | -0.944
32.0971 µM | -1.07
101.5 µM | 0.594

NC(=O)c1nc(-c2cccc(-c3cc(F)ccc3OCC(F)(F)C(F)(F)F)c2)n[nH]1 [MK-274]
Settings | LDH release cytotoxicity [%]
0.03162 µM | -1.29
0.1 µM | -0.429
0.3162278 µM | -0.661
1 µM | -1.07
3.16228 µM | -0.753
10 µM | -0.915
31.6228 µM | 0.166
100 µM | 86.6

CCCCc1ccc2c(n1)C(c1ccc(OC)cc1CC(C)C(=O)O)C(C(=O)O)C2c1ccc2c(c1)OCO2 (stereo not given) [MK-547]
Settings | LDH release cytotoxicity [%]
0.03162 µM | -0.553
0.1 µM | -1.23
0.3162278 µM | -0.915
1 µM | -1.66
3.16228 µM | -0.888
10 µM | -0.832
31.6228 µM | -0.204
100 µM | 0.0481

CCn1nc(Cc2ccccc2)cc1C1CCN(CC2CC(N(C)C(C(=O)O)C(C)C)CC2c2cccc(F)c2)CC1 (stereo not given) [MK-578]
Settings | LDH release cytotoxicity [%]
0.03162 µM | -1.06
0.1 µM | -1.8
0.3162278 µM | -1.85
1 µM | -2.168
3.16228 µM | -2.16
10 µM | -1.47
31.6228 µM | -1.08
100 µM | 9.55

COC1COCCC1NC1CCC(C(=O)N2CCc3ncc(C(F)(F)F)cc3C2)(C(C)C)C1 (stereo not given) [MK-812]
Settings | LDH release cytotoxicity [%]
0.03162 µM | 0.0558
0.1 µM | -1.65
0.3162278 µM | -1.72
1 µM | -2.52
3.16228 µM | -1.87
10 µM | -1.43
31.6228 µM | -1.59
100 µM | -0.0412

Fc1ccccc1C(F)COC1CCC(Nc2[nH]cnc3nncc2-3)CC1 (stereo not given) [MK-968]
Settings | LDH release cytotoxicity [%]
0.03162 µM | -1.09
0.1 µM | -1.55
0.3162278 µM | -2.19
1 µM | -2.2
3.16228 µM | -2.43
10 µM | -2.42
31.6228 µM | 1.23
100 µM | 10.8

CCOC(=O)CC(SP(=O)(OC)OC)C(=O)OCC (stereo not given) [Malaoxon]
Settings | LDH release cytotoxicity [%]
0.031623 µM | -0.0319
0.1 µM | -1.49
0.316228 µM | -2.33
1 µM | -2.43
3.16228 µM | -2.14
10 µM | -2.43
31.6228 µM | -1.77
100 µM | -0.859

CCOC(=O)CC(SP(=S)(OC)OC)C(=O)OCC (stereo not given) [Malathion]
Settings | LDH release cytotoxicity [%]
0.03162 µM | 0.138
0.1 µM | -0.944
0.3162278 µM | -0.165
1 µM | -0.829
3.16228 µM | -0.0242
10 µM | -0.216
31.6228 µM | -0.432
100 µM | 0.626

O=c1ccc(=O)[nH][nH]1 [Maleic hydrazide]
Settings | LDH release cytotoxicity [%]
0.03162 µM | -0.979
0.1 µM | -0.493
0.3162278 µM | -1.74
1 µM | -0.384
3.16228 µM | -1.91
10 µM | -1.15
31.6228 µM | 0.124
100 µM | 2.69

O=C(O)CC(O)C(=O)O (stereo not given) [Malic acid]
Settings | LDH release cytotoxicity [%]
0.03162 µM | -1.2
0.1 µM | -1.77
0.3162278 µM | -1.39
1 µM | -1.28
3.16228 µM | -1.27
10 µM | -1.41
31.6228 µM | -1.33
100 µM | 0.326

CC1OC=CC(=O)C1=O (stereo not given) [Maltol]
Settings | LDH release cytotoxicity [%]
0.032888 µM | -1.82
0.104 µM | -1.46
0.328877 µM | -2.18
1.04 µM | -3.62
3.28877 µM | -2.64
10.4 µM | -1.92
32.8877 µM | -1.627
104 µM | 0.353

S=C([S-])NCCNC(=S)[S-].S=C([S-])NCCNC(=S)[S-].[Mn+2].[Zn+2] [Mancozeb]
Settings | LDH release cytotoxicity [%]
0.01581 µM | -1.38
0.05 µM | -1.29
0.1581139 µM | -2.2
0.5 µM | -0.828
1.5811388 µM | 30.3
5 µM | 68.2
15.8114 µM | 72.55
50 µM | 77.11
